In ChEMBL document CHEMBL1743201, “Casarett and Doull's Toxicology The Basic Science of Poisons, 7th edition” (2008):

Key:
Type in all cases: ADME
[1] = molecular target: Glutathione S-transferase Mu 5 (Homo sapiens, UniProt P46439); assay: Substrates for human cytosolic glutathione transferase GSTM5
[2] = molecular target: Glutathione S-transferase 3, mitochondrial (Homo sapiens, UniProt O14880); assay: Substrates for human microsomal glutathione transferase MGST3
[3] = molecular target: T1, Glutathione S-transferase kappa 1 (Homo sapiens, UniProt Q9Y2Q3); assay: Substrates for human mitochondrial glutathione transferase GSTK1
T1 sequence (Q9Y2Q3 whole entry): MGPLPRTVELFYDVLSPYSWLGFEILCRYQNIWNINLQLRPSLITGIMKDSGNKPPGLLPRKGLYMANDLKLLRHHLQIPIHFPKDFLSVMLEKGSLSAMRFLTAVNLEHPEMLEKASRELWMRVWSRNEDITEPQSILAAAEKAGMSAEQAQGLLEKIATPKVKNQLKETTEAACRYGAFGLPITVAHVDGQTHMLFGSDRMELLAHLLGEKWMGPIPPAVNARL

[4] = molecular target: Microsomal glutathione S-transferase 2 (Homo sapiens, UniProt Q99735); assay: Substrates for human microsomal glutathione transferase MGST2
Chain of Microsomal glutathione S-transferase 2 (Q99735 whole entry): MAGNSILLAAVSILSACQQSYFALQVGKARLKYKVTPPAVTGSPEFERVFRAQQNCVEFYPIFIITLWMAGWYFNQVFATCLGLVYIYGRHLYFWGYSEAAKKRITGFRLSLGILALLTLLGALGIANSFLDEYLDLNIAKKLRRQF

[5] = molecular target: Glutathione S-transferase Mu 4 (Homo sapiens, UniProt Q03013); assay: Substrates for human cytosolic glutathione transferase GSTM4
Chain of Glutathione S-transferase Mu 4 (Q03013 whole entry): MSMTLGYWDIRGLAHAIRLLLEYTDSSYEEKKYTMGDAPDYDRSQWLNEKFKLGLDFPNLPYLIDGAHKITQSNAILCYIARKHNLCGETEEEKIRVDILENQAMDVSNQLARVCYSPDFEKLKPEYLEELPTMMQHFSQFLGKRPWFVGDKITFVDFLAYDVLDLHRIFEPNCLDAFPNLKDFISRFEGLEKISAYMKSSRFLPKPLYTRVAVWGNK

[6] = molecular target: T2, Microsomal glutathione S-transferase 1 (Homo sapiens, UniProt P10620); assay: Substrates for human microsomal glutathione transferase MGST1
T2 sequence (P10620 whole entry): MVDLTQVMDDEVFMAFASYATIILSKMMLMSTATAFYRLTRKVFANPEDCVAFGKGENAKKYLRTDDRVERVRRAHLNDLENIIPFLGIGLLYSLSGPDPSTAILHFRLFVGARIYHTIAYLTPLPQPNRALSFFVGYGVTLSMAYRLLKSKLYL

Sulfotransferase 2B1 [7] = molecular target: T3, Sulfotransferase 2B1 (Homo sapiens, UniProt O00204); assay: Major substrate of human cytosolic sulfotransferase SULT2B1_v2
T3 sequence (O00204 whole entry): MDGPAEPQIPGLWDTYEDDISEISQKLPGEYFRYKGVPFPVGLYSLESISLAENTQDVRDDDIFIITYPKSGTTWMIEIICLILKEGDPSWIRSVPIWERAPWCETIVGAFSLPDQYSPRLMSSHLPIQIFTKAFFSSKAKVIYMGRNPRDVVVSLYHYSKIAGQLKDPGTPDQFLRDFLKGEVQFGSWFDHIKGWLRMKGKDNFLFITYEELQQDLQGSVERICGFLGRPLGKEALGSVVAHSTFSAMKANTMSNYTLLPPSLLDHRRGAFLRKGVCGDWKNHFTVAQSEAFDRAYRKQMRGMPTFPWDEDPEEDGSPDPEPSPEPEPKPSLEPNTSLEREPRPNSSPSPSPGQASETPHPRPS

[8] = molecular target: UDP-glucuronosyltransferase 2B28 (Homo sapiens, UniProt Q9BY64); assay: Substrate of human UDP-glucuronosyltransferase UGT2B28
Chain of UDP-glucuronosyltransferase 2B28 (Q9BY64 whole entry): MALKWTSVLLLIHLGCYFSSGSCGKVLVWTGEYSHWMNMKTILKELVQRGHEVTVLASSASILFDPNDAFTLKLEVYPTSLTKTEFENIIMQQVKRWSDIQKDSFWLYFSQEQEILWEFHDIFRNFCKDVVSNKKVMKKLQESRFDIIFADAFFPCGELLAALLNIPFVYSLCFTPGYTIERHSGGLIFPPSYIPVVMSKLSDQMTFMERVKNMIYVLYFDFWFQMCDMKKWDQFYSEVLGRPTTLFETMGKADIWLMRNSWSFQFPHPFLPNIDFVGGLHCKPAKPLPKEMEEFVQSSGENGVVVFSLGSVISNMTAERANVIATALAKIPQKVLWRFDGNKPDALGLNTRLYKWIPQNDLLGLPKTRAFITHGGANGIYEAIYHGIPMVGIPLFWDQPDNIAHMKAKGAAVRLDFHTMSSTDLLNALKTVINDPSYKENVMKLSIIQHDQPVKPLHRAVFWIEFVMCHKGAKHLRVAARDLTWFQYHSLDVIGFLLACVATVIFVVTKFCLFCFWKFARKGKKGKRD

Sulfotransferase 2A1 = molecular target: T4, Sulfotransferase 2A1 (Homo sapiens, UniProt Q06520); assay: Major substrate of human cytosolic sulfotransferase SULT2A1
T4 sequence (Q06520 whole entry): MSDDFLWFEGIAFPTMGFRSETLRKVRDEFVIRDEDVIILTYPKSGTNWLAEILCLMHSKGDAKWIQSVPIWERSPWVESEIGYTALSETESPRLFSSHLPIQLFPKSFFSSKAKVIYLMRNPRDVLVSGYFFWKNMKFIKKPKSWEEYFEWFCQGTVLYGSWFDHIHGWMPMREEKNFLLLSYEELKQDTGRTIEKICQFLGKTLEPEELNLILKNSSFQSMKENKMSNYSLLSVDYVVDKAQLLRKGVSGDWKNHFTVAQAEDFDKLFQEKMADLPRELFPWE

[9] = molecular target: T5, UDP-glucuronosyltransferase 1A3 (Homo sapiens, UniProt P35503); assay: Substrate of human UDP-glucuronosyltransferase UGT1A3
T5 sequence (P35503 whole entry): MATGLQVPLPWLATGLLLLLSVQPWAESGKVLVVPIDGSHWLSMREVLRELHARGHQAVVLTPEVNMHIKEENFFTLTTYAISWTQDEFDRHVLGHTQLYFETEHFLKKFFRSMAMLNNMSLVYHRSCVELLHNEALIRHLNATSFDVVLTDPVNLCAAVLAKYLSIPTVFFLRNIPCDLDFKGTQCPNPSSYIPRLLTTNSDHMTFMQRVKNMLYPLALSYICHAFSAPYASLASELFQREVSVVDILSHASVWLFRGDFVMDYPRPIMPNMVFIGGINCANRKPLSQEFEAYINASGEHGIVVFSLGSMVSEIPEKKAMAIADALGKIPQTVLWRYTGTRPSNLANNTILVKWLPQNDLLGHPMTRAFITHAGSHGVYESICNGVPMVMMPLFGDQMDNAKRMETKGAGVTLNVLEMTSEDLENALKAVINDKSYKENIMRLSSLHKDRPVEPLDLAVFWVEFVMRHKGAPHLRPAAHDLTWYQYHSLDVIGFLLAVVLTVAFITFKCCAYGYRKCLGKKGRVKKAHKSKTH

Sulfotransferase 1E1 = molecular target: T6, Sulfotransferase 1E1 (Homo sapiens, UniProt P49888); assay: Major substrate of human cytosolic sulfotransferase SULT1E1
T6 sequence (P49888 whole entry): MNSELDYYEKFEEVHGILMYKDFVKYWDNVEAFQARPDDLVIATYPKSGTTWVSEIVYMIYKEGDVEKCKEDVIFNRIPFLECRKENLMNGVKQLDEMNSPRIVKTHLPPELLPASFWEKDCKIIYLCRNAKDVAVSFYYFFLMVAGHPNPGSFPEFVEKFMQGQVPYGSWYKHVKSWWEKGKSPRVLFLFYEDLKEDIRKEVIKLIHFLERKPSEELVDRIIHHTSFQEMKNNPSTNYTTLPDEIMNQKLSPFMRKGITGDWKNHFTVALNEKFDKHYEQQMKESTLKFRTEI

Sulfotransferase 1A1 = Sulfotransferase 1A1 (Homo sapiens, UniProt P50225); assay: Major substrate of human cytosolic sulfotransferase SULT1A1
Chain of Sulfotransferase 1A1 (P50225 whole entry): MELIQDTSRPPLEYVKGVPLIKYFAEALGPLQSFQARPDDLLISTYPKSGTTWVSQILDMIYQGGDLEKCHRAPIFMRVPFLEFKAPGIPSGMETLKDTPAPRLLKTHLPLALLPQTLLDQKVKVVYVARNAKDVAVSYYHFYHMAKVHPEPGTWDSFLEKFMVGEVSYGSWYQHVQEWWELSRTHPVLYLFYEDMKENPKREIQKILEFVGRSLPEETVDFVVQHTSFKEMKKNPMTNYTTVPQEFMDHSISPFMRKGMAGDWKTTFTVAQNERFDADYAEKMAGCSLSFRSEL

[10] = molecular target: Glutathione S-transferase omega-2 (Homo sapiens, UniProt Q9H4Y5); assay: Substrates for human cytosolic glutathione transferase GSTO2
Chain of Glutathione S-transferase omega-2 (Q9H4Y5 whole entry): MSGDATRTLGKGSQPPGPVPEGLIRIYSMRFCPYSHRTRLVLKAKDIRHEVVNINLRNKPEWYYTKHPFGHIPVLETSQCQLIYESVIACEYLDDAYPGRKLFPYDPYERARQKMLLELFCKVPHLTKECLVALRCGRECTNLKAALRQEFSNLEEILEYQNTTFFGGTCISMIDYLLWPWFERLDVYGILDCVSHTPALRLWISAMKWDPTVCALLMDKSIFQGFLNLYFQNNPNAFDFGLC

[11] = molecular target: Glutathione S-transferase omega-1 (Homo sapiens, UniProt P78417); assay: Substrates for human cytosolic glutathione transferase GSTO1
Chain of Glutathione S-transferase omega-1 (P78417 whole entry): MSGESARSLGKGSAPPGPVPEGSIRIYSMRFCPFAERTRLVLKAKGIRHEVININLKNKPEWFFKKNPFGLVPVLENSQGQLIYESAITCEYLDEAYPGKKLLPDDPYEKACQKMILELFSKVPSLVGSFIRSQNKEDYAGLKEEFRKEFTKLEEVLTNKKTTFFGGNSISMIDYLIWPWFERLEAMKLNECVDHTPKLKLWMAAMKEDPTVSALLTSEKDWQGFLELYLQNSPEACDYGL

[12] = molecular target: T7, UDP-glucuronosyltransferase 2B7 (Homo sapiens, UniProt P16662); assay: Substrate of human UDP-glucuronosyltransferase UGT2B7
T7 sequence (P16662 whole entry): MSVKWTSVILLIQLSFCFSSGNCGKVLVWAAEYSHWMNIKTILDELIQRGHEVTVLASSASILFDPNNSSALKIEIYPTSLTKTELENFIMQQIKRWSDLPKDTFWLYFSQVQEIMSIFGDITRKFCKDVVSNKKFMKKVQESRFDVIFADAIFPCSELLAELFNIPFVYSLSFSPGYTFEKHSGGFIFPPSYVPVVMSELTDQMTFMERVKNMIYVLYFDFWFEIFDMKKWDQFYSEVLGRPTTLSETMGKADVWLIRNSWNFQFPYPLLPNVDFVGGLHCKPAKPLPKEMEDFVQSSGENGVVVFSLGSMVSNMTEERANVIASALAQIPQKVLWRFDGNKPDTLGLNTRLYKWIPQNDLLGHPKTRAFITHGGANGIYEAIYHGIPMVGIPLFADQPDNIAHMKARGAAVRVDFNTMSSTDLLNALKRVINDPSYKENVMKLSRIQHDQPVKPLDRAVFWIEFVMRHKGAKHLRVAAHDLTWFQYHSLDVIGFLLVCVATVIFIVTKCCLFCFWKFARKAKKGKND

[13] = molecular target: UDP-glucuronosyltransferase 2A1 (Homo sapiens, UniProt P0DTE4); assay: Substrate of human UDP-glucuronosyltransferase UGT2A1
Chain of UDP-glucuronosyltransferase 2A1 (P0DTE4 whole entry): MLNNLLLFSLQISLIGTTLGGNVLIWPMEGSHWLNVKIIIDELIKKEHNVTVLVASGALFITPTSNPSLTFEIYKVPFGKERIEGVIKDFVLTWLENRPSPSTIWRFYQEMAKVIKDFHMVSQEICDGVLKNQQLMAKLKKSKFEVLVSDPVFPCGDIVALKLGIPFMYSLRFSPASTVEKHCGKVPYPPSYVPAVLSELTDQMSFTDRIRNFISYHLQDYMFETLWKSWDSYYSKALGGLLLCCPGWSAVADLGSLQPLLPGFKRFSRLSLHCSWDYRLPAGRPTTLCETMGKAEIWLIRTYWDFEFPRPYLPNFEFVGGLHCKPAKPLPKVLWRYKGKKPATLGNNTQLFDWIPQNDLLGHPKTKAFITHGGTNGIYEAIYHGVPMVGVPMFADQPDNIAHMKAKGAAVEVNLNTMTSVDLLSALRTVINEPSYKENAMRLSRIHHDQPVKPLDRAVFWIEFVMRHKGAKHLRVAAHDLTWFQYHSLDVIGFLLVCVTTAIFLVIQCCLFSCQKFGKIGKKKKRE

[14] = molecular target: T8, UDP-glucuronosyltransferase 1A8 (Homo sapiens, UniProt Q9HAW9); assay: Substrate of human UDP-glucuronosyltransferase UGT1A8
T8 sequence (Q9HAW9 whole entry): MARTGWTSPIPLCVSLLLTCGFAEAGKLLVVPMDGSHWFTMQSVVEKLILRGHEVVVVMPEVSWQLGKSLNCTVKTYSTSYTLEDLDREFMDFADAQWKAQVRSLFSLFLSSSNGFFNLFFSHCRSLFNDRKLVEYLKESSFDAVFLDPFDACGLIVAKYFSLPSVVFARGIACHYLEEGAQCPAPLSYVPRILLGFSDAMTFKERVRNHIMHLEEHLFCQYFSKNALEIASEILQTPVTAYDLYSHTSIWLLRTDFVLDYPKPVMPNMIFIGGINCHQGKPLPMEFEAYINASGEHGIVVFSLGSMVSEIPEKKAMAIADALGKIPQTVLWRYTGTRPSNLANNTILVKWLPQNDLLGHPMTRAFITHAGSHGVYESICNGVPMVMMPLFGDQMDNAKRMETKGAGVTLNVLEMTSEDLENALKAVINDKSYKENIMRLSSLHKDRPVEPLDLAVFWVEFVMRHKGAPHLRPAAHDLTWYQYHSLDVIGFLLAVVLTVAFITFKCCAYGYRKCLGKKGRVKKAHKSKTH

Sulfotransferase 2B1 [15] = molecular target: T3, Sulfotransferase 2B1; assay: Major substrate of human cytosolic sulfotransferase SULT2B1_v1
[16] = molecular target: T9, UDP-glucuronosyltransferase 1A6 (Homo sapiens, UniProt P19224); assay: Substrate of human UDP-glucuronosyltransferase UGT1A6
T9 sequence (P19224 whole entry): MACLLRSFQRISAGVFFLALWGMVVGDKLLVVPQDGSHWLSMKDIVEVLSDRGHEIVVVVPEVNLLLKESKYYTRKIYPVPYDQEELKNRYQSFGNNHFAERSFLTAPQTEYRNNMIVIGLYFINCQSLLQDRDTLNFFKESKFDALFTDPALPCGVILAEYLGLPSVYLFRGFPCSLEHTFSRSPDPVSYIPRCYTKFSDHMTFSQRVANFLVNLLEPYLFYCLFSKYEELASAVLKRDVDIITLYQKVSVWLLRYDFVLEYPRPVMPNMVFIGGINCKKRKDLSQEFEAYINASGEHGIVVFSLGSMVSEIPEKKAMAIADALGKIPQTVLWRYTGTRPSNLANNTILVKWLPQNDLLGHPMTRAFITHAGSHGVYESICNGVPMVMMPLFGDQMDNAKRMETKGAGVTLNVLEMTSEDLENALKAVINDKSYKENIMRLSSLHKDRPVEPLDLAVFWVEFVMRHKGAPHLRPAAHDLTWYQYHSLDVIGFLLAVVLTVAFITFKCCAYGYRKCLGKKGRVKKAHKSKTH

[17] = molecular target: T10, UDP-glucuronosyltransferase 1A9 (Homo sapiens, UniProt O60656); assay: Substrate of human UDP-glucuronosyltransferase UGT1A9
T10 sequence (O60656 whole entry): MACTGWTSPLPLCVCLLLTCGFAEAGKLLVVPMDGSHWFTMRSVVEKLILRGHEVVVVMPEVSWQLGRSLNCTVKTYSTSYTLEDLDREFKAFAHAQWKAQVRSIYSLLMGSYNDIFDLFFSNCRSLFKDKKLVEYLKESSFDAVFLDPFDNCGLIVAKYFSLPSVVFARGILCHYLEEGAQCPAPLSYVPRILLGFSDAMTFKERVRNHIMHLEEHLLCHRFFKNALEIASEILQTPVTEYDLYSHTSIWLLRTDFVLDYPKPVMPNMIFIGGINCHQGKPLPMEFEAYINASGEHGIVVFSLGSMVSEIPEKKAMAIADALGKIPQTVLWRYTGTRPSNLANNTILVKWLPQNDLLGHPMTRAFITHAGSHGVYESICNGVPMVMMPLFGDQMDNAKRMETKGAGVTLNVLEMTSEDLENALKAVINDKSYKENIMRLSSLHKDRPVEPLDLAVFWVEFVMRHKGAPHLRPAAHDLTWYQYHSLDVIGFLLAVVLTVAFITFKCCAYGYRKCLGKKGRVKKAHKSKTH

[18] = molecular target: T11, UDP-glucuronosyltransferase 2B17 (Homo sapiens, UniProt O75795); assay: Substrate of human UDP-glucuronosyltransferase UGT2B17
T11 sequence (O75795 whole entry): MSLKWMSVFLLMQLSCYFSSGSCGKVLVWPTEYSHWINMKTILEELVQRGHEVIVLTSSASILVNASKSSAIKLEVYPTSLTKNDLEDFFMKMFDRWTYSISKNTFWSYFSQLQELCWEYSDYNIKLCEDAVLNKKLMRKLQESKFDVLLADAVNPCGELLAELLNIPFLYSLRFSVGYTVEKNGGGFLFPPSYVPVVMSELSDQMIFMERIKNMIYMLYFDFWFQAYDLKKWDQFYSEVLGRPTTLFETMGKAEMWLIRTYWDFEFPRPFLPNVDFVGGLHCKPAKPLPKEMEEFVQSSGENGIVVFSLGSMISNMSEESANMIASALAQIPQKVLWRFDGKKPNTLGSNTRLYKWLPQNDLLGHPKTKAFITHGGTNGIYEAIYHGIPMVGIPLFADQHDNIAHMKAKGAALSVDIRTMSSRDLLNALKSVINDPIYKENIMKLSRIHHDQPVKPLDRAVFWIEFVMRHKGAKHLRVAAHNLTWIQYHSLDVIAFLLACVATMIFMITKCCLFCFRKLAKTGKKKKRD

Measured: Activity

Chain of Glutathione S-transferase 3, mitochondrial (O14880 whole entry): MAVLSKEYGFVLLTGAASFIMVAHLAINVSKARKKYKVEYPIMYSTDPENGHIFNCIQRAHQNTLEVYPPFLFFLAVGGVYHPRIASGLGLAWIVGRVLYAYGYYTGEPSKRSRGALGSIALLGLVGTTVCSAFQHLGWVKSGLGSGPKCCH
Chain of Glutathione S-transferase Mu 5 (P46439 whole entry): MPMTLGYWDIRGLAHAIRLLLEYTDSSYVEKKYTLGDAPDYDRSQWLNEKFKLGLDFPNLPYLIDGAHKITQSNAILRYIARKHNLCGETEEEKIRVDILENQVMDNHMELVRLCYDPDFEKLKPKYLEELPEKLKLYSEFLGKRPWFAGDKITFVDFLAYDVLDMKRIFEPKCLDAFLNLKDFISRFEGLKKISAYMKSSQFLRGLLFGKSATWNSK

O=[N+]([O-])c1ccc(Cl)c([N+](=O)[O-])c1 [DINITROCHLOROBENZENE]
Substrate: [1] | [2] | [3] | [4] | [5] | [6]

CC(C)CCC[C@@H](C)[C@H]1CC[C@H]2[C@@H]3CC=C4C[C@@H](O)CC[C@]4(C)[C@H]3CC[C@]12C [CHOLESTEROL]
Substrate: Sulfotransferase 2B1 [7]

C[C@]12CC[C@H]3[C@@H](CCC4=CC(=O)CC[C@@]43C)[C@@H]1CC[C@@H]2O [TESTOSTERONE]
Substrate: [8] | Sulfotransferase 2A1

C[C@]12CC[C@@H]3c4ccc(O)cc4CC[C@H]3[C@@H]1CC[C@@H]2O [ESTRADIOL]
Substrate: [9] | Sulfotransferase 1E1 | [8] | Sulfotransferase 1A1 | Sulfotransferase 2A1

O=C1OC(C(O)CO)C(=O)C1=O (stereo not drawn) [DEHYDROASCORBIC ACID]
Substrate: [10] | [11]

CCCC(CCC)C(=O)O [VALPROIC ACID]
Substrate: [9] | [12] | [13] | [14]

CC(=O)[C@H]1CC[C@H]2[C@@H]3CC=C4C[C@@H](O)CC[C@]4(C)[C@H]3CC[C@]12C [PREGNENOLONE]
Substrate: Sulfotransferase 1E1 | Sulfotransferase 2B1 [15] | Sulfotransferase 2A1

CC(C)Cc1ccc(C(C)C(=O)O)cc1 (stereo not drawn) [IBUPROFEN]
Substrate: [9] | [12] | [13] | [16] | [17] | [18]

C[C@]12CC[C@H](O)CC1=CC[C@@H]1[C@@H]2CC[C@]2(C)C(=O)CC[C@@H]12 [PRASTERONE]
Substrate: Sulfotransferase 1E1 | Sulfotransferase 2B1 [15] | Sulfotransferase 2B1 [7] | Sulfotransferase 2A1
